Measurements taken from patent US20190060371A1, “METHODS FOR CONTROLLED PROLIFERATION OF VESTIBULAR STEM CELLS / GENERATING INNER EAR HAIR CELLS USING WNT AND TGFBETA-INHIBITION” (Frequency Therapeutics, Inc., priority 2016, published 2019).
Entries after “also recorded” stand apart in the source; their conditions may differ.

Assays:
[1] = tested on: supporting cell/stem cell; assay: Expansion of Sox2 and Sox9 positive cells from vestibular organs in 3D Matrigel culture; type: cell-based, neonatal mice; settings: for cell growth when added to Wnt agonism (C) (total cells, FIG. 2): added to GF+C (CHIR99021), D10; for colony size compared to Wnt agonism alone (FIG. 5): TGF-beta inhibitor added to CHIR99021 in a background of GF
Description: Isolation of stem cells from the inner ear: All animal studies were conducted under an approved institutional protocol according to National Institutes of Health guidelines. For experiments with neonatal mice (postnatal days 1-3), the vestibular organs were dissected in HBSS. The vestibular organs were then treated with TrypLE (Life Technologies) for 15-20 minutes at […]. Single cells obtained by mechanical trituration were filtered (40 μm) and suspended in Matrigel (Corning) for 3D culture. Cells were cultured in a 1:1 mixture of DMEM and F12, supplemented with Glutamax (GIBCO), N2, B27 (Invitrogen), EGF (50 ng/mL; Chemicon), bFGF (50 ng/mL; Chemicon), IGF1 (50 ng/mL; Chemicon) and a composition comprising the following agents: CHIR99021 (a Wnt activator), 616452 (a TGF-beta inhibitor), Noggin (a BMP4 inhibitor), VPA (HDAC inhibitor), and combinations there. Media were changed every other day. Total cells were quantified after 10 days (D10) in culture in multiple conditions. (i) GF; ([…]6); wherein On D10, cell colonies were dissociated into single cells using TrypLE (Gibco). The cells were then stained with propidium iodide (PI) and analyzed using a flow cytometer expression. The number of cells were quantified. […] Also on D10, cells were stained with Sox2 (data not shown), as well as Sox9, Rhodamine Phalloidin (stains F-actin), and DAPI (nuclear stain) (see FIG. 3) to assess the identity of the cell populations. Colonies were visualized using confocal microscopy. Sox2 and Sox9 are stem cell markers in the balance organs.

progenitor colonies = assay: Differentiation of Sox2 and Sox9 progenitor cell colonies into hair cells; type: cell-based, neonatal mice; settings: gamma secretase inhibition; confocal images
Description: Isolation of stem cells from the inner ear: All animal studies were conducted under an approved institutional protocol according to National Institutes of Health guidelines. For experiments with neonatal mice (postnatal days 1-3), the vestibular organs were dissected in HBSS. The vestibular organs were then treated with TrypLE (Life Technologies) for 15-20 minutes at […]. Single cells obtained by mechanical trituration were filtered (40 μm) and suspended in Matrigel (Corning) for 3D culture.
Differentiation of Sox2 and Sox9 Progenitor Cells Stem cell colonies were differentiated in a 1:1 mixture of DMEM and F12, supplemented with Glutamax (GIBCO), N2, B27 (Invitrogen), with the addition of molecules that drive differentiation, or after removal of growth factors without the addition of molecules that drive differentiation. Small molecules were added to the culture to test their effect on differentiation.
Indicative of hair cells, the cells express Myo VIIa (green) and have actin hair bundles (red).

Cc1c[nH]c(-c2cnc(NCCNc3ccc(C#N)cn3)nc2-c2ccc(Cl)cc2Cl)n1 [CHIR99021]
supporting cell/stem cell growth (total cells, FIG. 2) ([1]; added to GF (EGF, FGF, IGF), 10 days (D10), flow cytometer): promoted supporting cell/stem cell growth
supporting cell/stem cell growth and colony formation (FIG. 5) ([1]; in a background of GF): promoted supporting cell/stem cell growth and colony formation

Cc1cccc(-c2n[nH]cc2-c2ccc3ncccc3n2)n1 [Compound 616452, 2-(3-(6-Methylpyridin-2-yl)-1H-pyrazol-4-yl)-1,5-naphthyridine]
cell growth when added to Wnt agonism (C) (total cells, FIG. 2) ([1]; flow cytometer): improved stem cell growth

Cc1cccc(-c2nn(C(=S)Nc3ccccc3)cc2-c2ccnc3ccccc23)n1 [Compound A-83-01, 3-(6-Methylpyridin-2-yl)-4-(4-quinolyl)-1-phenylthiocarbamoyl-1H-pyrazole]
colony size compared to Wnt agonism alone (FIG. 5) [1]: larger colonies
colony size compared to Wnt agonism alone (FIG. 5) ([1]; listed as A 83-01): larger supporting cell/stem cell colonies

C[C@H](NC(=O)[C@@H](O)c1cc(F)cc(F)c1)C(=O)N[C@@H]1C(=O)N(C)c2ccccc2-c2ccccc21 [LY411575]
conversion of colonies into hair cells (Myosin VIIA, actin hair bundles; FIG. 4) (progenitor colonies): differentiated into high purity populations of hair cells; also recorded: converted into high purity hair cell populations

NC(=O)c1ccc(-c2nc(-c3ccc4c(c3)OCO4)c(-c3ccccn3)[nH]2)cc1 [SB-431542, 4-[4-(1,3-Benzodioxol-5-yl)-5-(2-pyridinyl)-1H-imidazol-2-yl]-benzamide]
colony size compared to Wnt agonism alone (FIG. 5) [1]: larger supporting cell/stem cell colonies

CCCC(CCC)C(=O)O [VPA, valproic acid]
cell growth when added to Wnt agonism (C) (total cells, FIG. 2) ([1]; flow cytometer): inhibited cell growth
